From PubChem BioAssay (NCI) come the findings set out here.

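1) Cells in 96-well plates. 2) Compound, 48 h, 5 concentrations. 3) Linear interpolation between surrounding doses. 4) Unreached endpoint = highest concentration. GI50 is the concentration that inhibits growth by half. The concentration for full growth arrest is given as TGI.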

What all share (test): DTP human tumour cell line panel, 48 h
Assay [1] deals with A549 NSCLC.
Assay [2] has as its system CCRF-CEM leukemia.
For assay [3], the system named is DU-145 prostate.
The test system of assay [4] is HCT-15 colon.
Assay [5] has as its system HT29 colon.
For assay [6], the system named is K-562 leukemia.
Assay [7] concerns MDA-MB-435.
Assay [8] has as its system NCI-H522 lung.
For assay [9], the system named is SK-MEL-2 melanoma.
Assay [10] deals with SK-MEL-28 melanoma.

Usually GI50 stands for the concentration that inhibits growth by half. As a reminder, the TGI is the concentration at which net growth stops. A low value points to greater sensitivity of the cells. For `CC(C)(C)OC(=O)N1CCN(CCn2cc(C(F)(F)F)c3c(Cl)ncnc32)CC1`, the GI50 in assay [1] is 19.3 µM; in assay [2], 2.85 µM; in assay [3], 2.96 µM; in assay [4] it was 1.94 µM; in assay [5], 3.27 µM; in assay [6], 3.22 µM. The GI50 was 1.84 µM in assay [7], 15.1 µM in assay [8], 1.93 µM in assay [9] and 1.74 µM in [10]. For the same molecule, the TGI was found to be 35.6 µM in assay [1]; 9.19 µM in assay [2]; 9.2 µM in [3]; 3.94 µM in [4]; 11.1 µM in assay [5]; 14.1 µM in [6]. In addition, the concentration for total growth inhibition (TGI) in assay [7] worked out at 3.65 µM; in [8] it was 29.9 µM; in assay [9], 3.9 µM; in assay [10], 3.25 µM.
As for `Nc1c(C(=O)c2cccc(-c3ccncc3)c2)cnn1-c1ccc(F)cc1F`, the GI50 in assay [1] is 6.01 µM; in assay [2], 17 µM; in assay [3], more than 22.1 µM; in assay [4], 2.19 µM; in assay [5] it was 2.48 µM; in [6] it was 2.57 µM. Besides, the GI50 in assay [7] is 0.684 µM; in [8], 5.73 µM; in assay [9], 6.43 µM; in assay [10], 16.7 µM. Moreover, the TGI in assay [1], in assay [2], in assay [3], in assay [4], in assay [5] and in [6] was more than 25 µM in each case. The concentration for total growth inhibition (TGI) in assay [7] was 3.56 µM; in assay [8] it was more than 18.7 µM; in [9], more than 19.7 µM; in [10] it was more than 25 µM.
As for `c1ccc2[nH]c(-c3ccc(-c4nccc5c4[nH]c4ccccc45)cc3)nc2c1`, the GI50 was 4.15 µM in assay [1]; 3.12 µM in assay [2]; 4.02 µM in assay [3]; 2.22 µM in [4]; 2.19 µM in assay [5]; 2.34 µM in [6]. For the same molecule, the GI50 was 1.92 µM in assay [7], 2.06 µM in assay [8], 1.99 µM in assay [9] and 1.96 µM in assay [10]. Besides, the total growth inhibition concentration (TGI) in assay [1] was found to be 18.6 µM; in assay [2], 9.12 µM; in [3], 16.2 µM; in assay [4], 5.61 µM; in [5] it was 4.43 µM; in assay [6], 5.47 µM. For the same molecule, the TGI amounted to 4.27 µM in assay [7], 5.04 µM in assay [8], 4.34 µM in [9] and 3.75 µM in assay [10].
Consider `Cc1c(C(N)=O)sc2c1C(=O)N(Cc1ccccc1)C1=NN=C(c3ccc(Cl)cc3)CN12`, for which the GI50 in assay [1] was 3.57 µM; in assay [2], 1.49 µM; in assay [3] it was 3.44 µM; in [4] it was 0.688 µM; in [5], 4.8 µM; in assay [6], 2.97 µM. Besides, the GI50 was 4.9 µM in assay [7], 3.19 µM in [8], 6.1 µM in [9] and 5.67 µM in [10]. Also, the total growth inhibition concentration (TGI) in assay [1] is 13.5 µM; in assay [2], 43.1 µM; in assay [3], 14.5 µM; in assay [4], 17.9 µM; in assay [5] it was 16.1 µM; in assay [6] it was more than 100 µM. Also, the TGI in assay [7] worked out at 26.1 µM; in [8], 13.2 µM; in [9], 18.6 µM; in assay [10], 18.5 µM.
`CCC1C2Cc3ccc(O)cc3C1(CC)CCN2C` (centres undefined): the TGI in assay [1], in assay [2], in assay [3], in assay [4], in assay [5] and in assay [6] was more than 100 µM throughout. Moreover, the TGI in [7], in [8], in assay [9] and in assay [10] was more than 100 µM each time.
Consider `Cc1cc(O)c(C(C)C)cc1S(=O)(=O)O` (tested in a mixture with another compound), for which the GI50 in assay [1] was 0.372 µM; in assay [2], 0.323 µM; in assay [3], 0.363 µM; in assay [4] it was 0.38 µM; in assay [5] it was 0.337 µM; in assay [6], 0.375 µM. The GI50 in assay [7] is 0.171 µM; in [8], 0.238 µM; in [9], 0.502 µM; in [10], 0.634 µM. Moreover, the TGI stood at 2.45 µM in assay [3], 1.1 µM in assay [5], 0.464 µM in assay [7] and 2.46 µM in assay [9].
For `C=C(C)C(=O)Nc1ccc(NC(C)C)cc1`, the GI50 in assay [1], in [2], in [3], in assay [4], in assay [5] and in assay [6] was more than 100 µM throughout. The GI50 in assay [7], in assay [8], in assay [9] and in assay [10] was more than 100 µM each time. The TGI in [1], in assay [2], in assay [3], in assay [4], in [5] and in [6] was more than 100 µM in each case. Besides, the total growth inhibition concentration (TGI) in [7], in [8], in assay [9] and in [10] was more than 100 µM in each case.
Consider `COc1cc(/C=C/C(=O)c2cccc(Nc3nc(Nc4ccccc4)nc(Nc4ccccc4)n3)c2)cc(OC)c1OC`, for which the GI50 in [1] is 36.6 µM; in [2] it was 0.904 µM; in [3] it was 5.91 µM; in [4] it was 4.57 µM; in assay [5], 6.41 µM; in [6] it was 1.37 µM. The GI50 is 7.67 µM in [7], 5.11 µM in [8], 7.78 µM in [9] and 4.02 µM in [10]. Besides, the total growth inhibition concentration (TGI) in assay [1] is more than 100 µM; in assay [2], 5.67 µM; in [3] it was more than 100 µM; in assay [4], more than 100 µM; in [5], more than 100 µM; in assay [6] it was more than 38.8 µM. Further, the TGI is more than 73.4 µM in [7], more than 100 µM in [8], more than 65.4 µM in [9] and 19.6 µM in assay [10].
